Where two headings read alike, the source gives them in different places.
Target: T1, human Edg-1(S1P1) (Homo sapiens, UniProt P21453)
T1 construct: expressed in transfected cells; host or cells: HEK-293
Assay: Cell system binding test: inhibition of [3H]-S1P binding to Edg-1(S1P1) gene transferred HEK-293 cells
Settings: [3H]-S1P 10 nM
Experimental: Cells (1×10^5 cells/well) obtained as described above were seeded in poly-L-lysine-coated 96-well plates (Corning Incorporated), and then incubated in a 5% carbon dioxide gas incubator for 12 hours at 37° C. with the use of an MEM medium (Invitrogen Corporation) containing 100 U/mL of penicillin, 100 μg/mL of streptomycin, a 1% MEM nonessential amino acid solution, and 10% FCS. […] After the cells were washed twice with the buffer, they were solubilized with 100 μL of Opti Phase Supermix (produced by Perkin-Elmer), and measured for radioactivity by means of Micro Beta (produced by Perkin-Elmer).
Inhibition rate(%)=[1−(A−C)/(B−C)]×100

[1] = 10 μM compound, read-out: Cell system binding test % inhibition (10 μM)
[2] = test compound 10^-5 M, 1 hour, read-out: Edg-1(S1P1) binding inhibition rate (cell system binding test)

T1 sequence (P21453 whole entry): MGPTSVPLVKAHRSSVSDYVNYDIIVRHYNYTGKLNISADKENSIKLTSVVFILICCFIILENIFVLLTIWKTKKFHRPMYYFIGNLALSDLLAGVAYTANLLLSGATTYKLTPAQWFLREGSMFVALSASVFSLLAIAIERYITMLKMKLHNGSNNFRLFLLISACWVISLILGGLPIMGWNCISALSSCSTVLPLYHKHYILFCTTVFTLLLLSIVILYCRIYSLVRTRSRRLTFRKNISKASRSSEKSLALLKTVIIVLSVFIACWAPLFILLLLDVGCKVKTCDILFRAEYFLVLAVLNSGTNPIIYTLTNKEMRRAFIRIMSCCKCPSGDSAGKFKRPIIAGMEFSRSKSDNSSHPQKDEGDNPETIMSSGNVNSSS

| SMILES | inhibition at 10 µM [1] | inhibition at 10 µM [2] |
| --- | --- | --- |
| CCOc1nnc([C@@H](C)NS(=O)(=O)c2cnc(C)s2)n1CC [Compound 438] | 82.2% |  |
| CCn1c(OC)nnc1[C@@H](C)NS(=O)(=O)c1ccc(Cl)c(S(N)(=O)=O)c1 [Compound 364] | 27% |  |
| CCn1c(OC)nnc1[C@@H](C)NS(=O)(=O)CCN1C(=O)c2ccccc2C1=O [Compound 331] | 23.9% |  |
| CCn1c(OC)nnc1[C@@H](C)NS(=O)(=O)c1ccc2oc(=O)ccc2c1 [Compound 363] | 100% |  |
| CCn1c(OC)nnc1[C@@H](C)NS(=O)(=O)c1ccc(S(C)(=O)=O)cc1 [Compound 228] | 93.9% |  |
| CCn1c(OC)nnc1[C@@H](C)NS(=O)(=O)c1ccco1 [Compound 442] | 40.2% |  |
| CCCCCCCCCCS(=O)(=O)N[C@H](C)c1nnc(OC)n1CC [Compound 334] | 54.7% |  |
| CCn1c(OC)nnc1[C@@H](C)NS(=O)(=O)CC(c1ccccc1)c1ccccc1 [Compound 297] | 23.8% |  |
| CCn1c(OC)nnc1[C@@H](C)NS(=O)(=O)c1c(C)cc(C)cc1C [Compound 225] | 94% |  |
| C=CCSc1nnc([C@@H](Cc2ccccc2)NS(=O)(=O)c2ccc(Cl)cc2)n1CCN1CCOCC1 [Compound 153] | 26.8% |  |
| CCn1c(OC)nnc1[C@@H](C)NS(=O)(=O)c1ccc(Oc2ccccc2)cc1 [Compound 278] | 70.9% |  |
| CCn1c(OC)nnc1[C@@H](C)NS(=O)(=O)CC1CCCCC1 [Compound 333] | 92.8% |  |
| CCn1c(OC)nnc1[C@@H](C)NS(=O)(=O)c1cccc(C(=O)c2ccccn2)c1 [Compound 358] | 79.6% |  |
| CCn1c(OC)nnc1[C@@H](C)NS(=O)(=O)Cc1cccnc1 [Compound 325] | 36.5% |  |
| CCn1c(OC)nnc1[C@@H](CO)NS(=O)(=O)c1ccc(Cl)cc1 [Compound 483] |  | 88.9% |
| C=CCSc1nnc([C@@H](C)NS(=O)(=O)c2ccc(Cl)cc2)n1C [Compound 92] | 88.3% |  |
| CCn1c(OC)nnc1[C@@H](C)NS(=O)(=O)c1ccccc1OC [Compound 332] | 35.5% |  |
| CCn1c(OC)nnc1[C@@H](C)NS(=O)(=O)Cc1ccc(Cl)cc1 [Compound 293] | 31.8% |  |
| CCn1c(OC)nnc1[C@@H](C)NS(=O)(=O)c1cccc(C(=O)c2ccncc2)c1 [Compound 357] | 85.6% |  |
| CCn1c(OC)nnc1[C@@H](C)NS(=O)(=O)c1c(Cl)cccc1Cl [Compound 219] | 95.9% |  |

| SMILES | inhibition at 10 µM [1] | inhibition at 10 µM [2] |
| --- | --- | --- |
| CCn1c(OC)nnc1[C@@H](C)NS(=O)(=O)c1cccc(Oc2ccccc2OC)c1 [Compound 324] | 88.1% |  |
| CCn1c(OC)nnc1[C@@H](C)NS(=O)(=O)c1ccsc1 [Compound 342] | 88.4% |  |
| CCn1c(OC)nnc1[C@@H](C)NS(=O)(=O)c1ccccc1C(=O)OC [Compound 259] | 86.8% |  |
| CCn1c(OC)nnc1[C@@H](C)NS(=O)(=O)c1cc(Cl)ccc1OC [Compound 300] | 95% |  |
| CCn1c(OC)nnc1[C@@H](C)NS(=O)(=O)Cc1cccc([N+](=O)[O-])c1 [Compound 304] | 79.8% |  |
| CCn1c(SCc2ccc(C(C)(C)C)cc2)nnc1C(C)NS(=O)(=O)c1ccc(Cl)cc1 (stereo not shown) [Compound 89] | 89.3% |  |
| CCn1c(OC)nnc1[C@@H](C)NS(=O)(=O)c1cnoc1C [Compound 336] | 89.3% |  |
| CCn1c(OC)nnc1[C@@H](C)NS(=O)(=O)c1cccnc1 [Compound 373] | 73.4% |  |
| CCn1c(OC)nnc1[C@H](NS(=O)(=O)c1ccc(Cl)cc1)[C@H](C)O [Compound 506] |  | 88.6% |
| CCCC(NS(=O)(=O)c1ccc(Cl)cc1)c1nnc(SCc2ccccc2)n1C (stereo not shown) [Compound 126] | 77% |  |
| CCn1c(OC)nnc1[C@@H](C)NS(=O)(=O)Cc1ccc(F)cc1 [Compound 294] | 64.5% |  |
| CCn1c(OC)nnc1[C@@H](C)NS(=O)(=O)c1ccc(CCC(=O)OC)cc1 [Compound 301] | 78.3% |  |
| CCn1c(OC)nnc1[C@@H](C)NS(=O)(=O)Cc1ccccn1 [Compound 323] | 64.4% |  |
| CCn1c(OC)nnc1[C@@H](C)NS(=O)(=O)c1sc(C)nc1C [Compound 339] | 92.1% |  |
| CCn1c(OC)nnc1[C@@H](C)NS(=O)(=O)c1c(C)nn(C)c1Cl [Compound 253] | 83.4% |  |
| CCCS(=O)(=O)N[C@H](C)c1nnc(OC)n1CC [Compound 239] | 92.7% |  |
| C=CCSc1nnc(C(CC)NS(=O)(=O)c2ccc(Cl)cc2)n1C (stereo not shown) [Compound 105] | 71.5% |  |
| CCn1c(OC)nnc1[C@@H](C)NS(=O)(=O)c1ccccc1-c1ccccc1 [Compound 370] | 32.3% |  |
| CCn1c(OC)nnc1[C@@H](C)NS(=O)(=O)Cc1cccc(C(F)(F)F)c1 [Compound 295] | 66.1% |  |
| CCn1c(OC)nnc1[C@@H](C)NS(=O)(=O)CCCOc1ccc(OC)cc1 [Compound 318] | 68.5% |  |

| SMILES | inhibition at 10 µM [1] | inhibition at 10 µM [2] |
| --- | --- | --- |
| CCn1c(OC)nnc1[C@@H](C)NS(=O)(=O)c1ccc(O)cc1 [Compound 422] | 47.5% |  |
| CCn1c(OC)nnc1[C@@H](C)NS(=O)(=O)Cc1ccncc1 [Compound 329] | 38.5% |  |
| CCCCNC(=O)Nc1ccc(S(=O)(=O)N[C@H](C)c2nnc(OC)n2CC)cc1 [Compound 353] | 23.3% |  |
| CCn1c(OC)nnc1[C@@H](C)NS(=O)(=O)c1c(F)cccc1F [Compound 298] | 85.7% |  |
| CCn1c([C@@H](C)NS(=O)(=O)c2ccc(Cl)cc2)nnc1[S+](C)[O-] (stereo partly drawn) [Compound 180, 4-Chloro-N-{(1R)-1-[4-ethyl-5-(methylsulfinyl)-4H-1,2,4-triazol-3-yl]ethyl}benzenesulfonamide] | 48.9% |  |
| CCn1c(OC)nnc1[C@@H](C)NS(=O)(=O)c1cc(Cl)ccc1F [Compound 316] | 92.9% |  |
| CCn1c(OC)nnc1C(CCc1ccccc1)NS(=O)(=O)c1ccc(Cl)cc1 (stereo not shown) [Compound 441] | 14.7% |  |
| CCn1c(OC)nnc1[C@@H](C)NS(=O)(=O)Cc1ccccc1[N+](=O)[O-] [Compound 234] | 90.9% |  |
| CCn1c(OC)nnc1[C@@H](C)NS(=O)(=O)c1ccc(NC(=O)NC)c(Cl)c1 [Compound 362] | 28.2% |  |
| CCn1c(OC)nnc1[C@@H](C)NS(=O)(=O)c1ccc(F)cc1F [Compound 279] | 101% |  |
| CCn1c(OC)nnc1[C@@H](C)NS(=O)(=O)Cc1ccccc1 [Compound 244] | 92.3% |  |
| CCOc1nnc([C@@H](C)NS(=O)(=O)c2cccc(O)c2)n1CC [Compound 419] | 67.8% |  |
| CCn1c(OC)nnc1[C@@H](C)NS(=O)(=O)c1ccccc1I [Compound 283] | 73.9% |  |
| CCCC(NS(=O)(=O)c1ccc(Cl)cc1)c1nnc(SCc2ccc(C)cc2)n1C (stereo not shown) [Compound 127] | 63.6% |  |
| CCn1c(OC)nnc1[C@@H](C)NS(=O)(=O)Cc1cccc(Cl)c1 [Compound 305] | 86.5% |  |
| CCn1c(OC)nnc1[C@@H](C)NS(=O)(=O)c1ccc(C(=O)OC)o1 [Compound 256] | 95.6% |  |
| CCn1c(OC)nnc1[C@@H](C)NS(=O)(=O)c1ccc(C)o1 [Compound 425] | 83.6% |  |
| CCn1c(OC)nnc1[C@@H](C)NS(=O)(=O)c1c(C)noc1C [Compound 254] | 84.6% |  |
